Measured values: the supplement of paper PMC11208160
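Also: IS621 bridge recombinase in Escherichia coli cells against a fixed T5 target plasmid.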

Experiment: recombinant UMI read abundance after kanamycin selection (control-corrected) (log10(CPM+1)); higher = more efficient recombination; extreme values may be limits of the assay; sequences stand for … in AGTGCAGAGAAAATCGGCCAGTTTTCTCTGCCTGCAGTCCGCATGCCGTGGGACCCCTTGGGTTCTAACCTGTTGCCTAGATTTATGCAGCGGACTGCCTTTCTCCCAAAGTGATAAACCGG…AGGTTGGTTTCACT; site = the 11-nt donor
Procedure, shortened: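 Reported values are log10(CPM+1) from a pooled Escherichia coli screen of donor and donor-binding-loop pairs for the IS621 bridge recombinase. Selection used IPTG (0.07 mM) plus kanamycin, against unselected plating, each in two replicates. Recombinant UMIs were amplified across the donor–target junction, sequenced, converted to CPM, averaged over replicates and scaled by control-derived factors.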
With “AGCCTTGCATGGACCGGTTTTCCCGGTAATCCGTATTTGAC (site AGCCTTACTGT)” the “recombinant UMI read abundance (log10)” value was 0. In the case of “AGCCTTGCATGGACCGGTTTTCCCGGTAATCCGTATTTGAC (site AGCCTTCCTGT)”, the “recombinant UMI read abundance (log10)” value is reported as 0. In the case of “AGCCTTGCATGGACCGGTTTTCCCGGTAATCCGTATTTGAC (site AGCCTTGCTGT)”, the “recombinant UMI read abundance (log10)” value is reported as 1.36. With “AGCCTTGCATGGACCGGTTTTCCCGGTAATCCGTATTTGAC (site AGCCTTTCTGT)” the “recombinant UMI read abundance (log10)” value was 0. For “AGCCTTTCATGGACCGGTTTTCCCGGTAATCCGTATTTGTC (site AGCCTTTCTGA)”, the “recombinant UMI read abundance (log10)” value was 0. With “AGCCTTTCATGGACCGGTTTTCCCGGTAATCCGTATTTGTC (site AGCCTTTCTGC)” the “recombinant UMI read abundance (log10)” value was 0. With “AGCCTTTCATGGACCGGTTTTCCCGGTAATCCGTATTTGTC (site AGCCTTTCTGG)” the “recombinant UMI read abundance (log10)” value was 0. In the case of “AGCCTTTCATGGACCGGTTTTCCCGGTAATCCGTATTTGTC (site AGCCTTTCTGT)”, the “recombinant UMI read abundance (log10)” value is reported as 0.00535. With “AGCGAGTCATGGACCGGTTTTCCCGGTAATCCGTATTTGAT (site AGCGAGTCTAT)” the “recombinant UMI read abundance (log10)” value was 2.73. In the case of “AGCTAACCATGGACCGGTTTTCCCGGTAATCCGTATTTGCA (site AGCTAACCTTG)”, the “recombinant UMI read abundance (log10)” value is reported as 0. In the case of “AGCTAGTCATGGACCGGTTTTCCCGGTAATCCGTATTTGAG (site AGCTAGTCTCT)”, the “recombinant UMI read abundance (log10)” value is reported as 2.57. With “AGCTATACATGGACCGGTTTTCCCGGTAATCCGTATTTGAC (site AACTATACTGT)” the “recombinant UMI read abundance (log10)” value was 0.393. In the case of “AGCTATACATGGACCGGTTTTCCCGGTAATCCGTATTTGAC (site ACCTATACTGT)”, the “recombinant UMI read abundance (log10)” value is reported as 0.726. In the case of “AGCTATACATGGACCGGTTTTCCCGGTAATCCGTATTTGAC (site AGCTATACTGT)”, the “recombinant UMI read abundance (log10)” value is reported as 2.03. With “AGCTATACATGGACCGGTTTTCCCGGTAATCCGTATTTGAC (site ATCTATACTGT)” the “recombinant UMI read abundance (log10)” value was 1.85. For “AGCTCATCATGGACCGGTTTTCCCGGTAATCCGTATTTGGG (site AGCTCAACTCC)”, the “recombinant UMI read abundance (log10)” value was 0. With “AGCTCATCATGGACCGGTTTTCCCGGTAATCCGTATTTGGG (site AGCTCACCTCC)” the “recombinant UMI read abundance (log10)” value was 0.0192. With “AGCTCATCATGGACCGGTTTTCCCGGTAATCCGTATTTGGG (site AGCTCAGCTCC)” the “recombinant UMI read abundance (log10)” value was 0.0292. For “AGCTCATCATGGACCGGTTTTCCCGGTAATCCGTATTTGGG (site AGCTCATCTCC)”, the “recombinant UMI read abundance (log10)” value was 0.833. With “AGCTCCCCATGGACCGGTTTTCCCGGTAATCCGTATTTGGG (site AGCTCCCCTCC)” the “recombinant UMI read abundance (log10)” value was 0.111. For “AGCTGAGCATGGACCGGTTTTCCCGGTAATCCGTATTTGGG (site AGCTAAGCTCC)”, the “recombinant UMI read abundance (log10)” value was 0.0048. For “AGCTGAGCATGGACCGGTTTTCCCGGTAATCCGTATTTGGG (site AGCTCAGCTCC)”, the “recombinant UMI read abundance (log10)” value was 0. For “AGCTGAGCATGGACCGGTTTTCCCGGTAATCCGTATTTGGG (site AGCTGAGCTCC)”, the “recombinant UMI read abundance (log10)” value was 0.385. For “AGCTGAGCATGGACCGGTTTTCCCGGTAATCCGTATTTGGG (site AGCTTAGCTCC)”, the “recombinant UMI read abundance (log10)” value was 0.0451. With “AGCTGCGCATGGACCGGTTTTCCCGGTAATCCGTATTTGAA (site AGCTGCGCTTT)” the “recombinant UMI read abundance (log10)” value was 1.4. With “AGCTTCGCATGGACCGGTTTTCCCGGTAATCCGTATTTGAC (site AGCTTCGCTGT)” the “recombinant UMI read abundance (log10)” value was 1.58. With “AGCTTTTCATGGACCGGTTTTCCCGGTAATCCGTATTTGAC (site AGCATTTCTGT)” the “recombinant UMI read abundance (log10)” value was 0. With “AGCTTTTCATGGACCGGTTTTCCCGGTAATCCGTATTTGAC (site AGCCTTTCTGT)” the “recombinant UMI read abundance (log10)” value was 0. For “AGCTTTTCATGGACCGGTTTTCCCGGTAATCCGTATTTGAC (site AGCGTTTCTGT)”, the “recombinant UMI read abundance (log10)” value was 0. In the case of “AGCTTTTCATGGACCGGTTTTCCCGGTAATCCGTATTTGAC (site AGCTTTTCTGT)”, the “recombinant UMI read abundance (log10)” value is reported as 0.00446. In the case of “AGGAAAACATGGACCGGTTTTCCCGGTAATCCGTATTTGCG (site AGGAAAACTCG)”, the “recombinant UMI read abundance (log10)” value is reported as 1.5. For “AGGAAAACATGGACCGGTTTTCCCGGTAATCCGTATTTGCG (site AGGAAGACTTG)”, the “recombinant UMI read abundance (log10)” value was 0. For “AGGAAAACATGGACCGGTTTTCCCGGTAATCCGTATTTGGG (site AGGAAAACTCC)”, the “recombinant UMI read abundance (log10)” value was 0.592. For “AGGAACACATGGACCGGTTTTCCCGGTAATCCGTATTTGCC (site AGGAACACTGG)”, the “recombinant UMI read abundance (log10)” value was 3.08. With “AGGAACACATGGACCGGTTTTCCCGGTAATCCGTATTTGCC (site AGGAAGACTTG)” the “recombinant UMI read abundance (log10)” value was 0. In the case of “AGGAAGACATGGACCGGTTTTCCCGGTAATCCGTATTTGCT (site AGGAAGACTAG)”, the “recombinant UMI read abundance (log10)” value is reported as 2.25. For “AGGAAGACATGGACCGGTTTTCCCGGTAATCCGTATTTGCT (site AGGAAGACTCG)”, the “recombinant UMI read abundance (log10)” value was 0.519. For “AGGAAGACATGGACCGGTTTTCCCGGTAATCCGTATTTGCT (site AGGAAGACTGG)”, the “recombinant UMI read abundance (log10)” value was 0.
